Inhibition data for ten molecules are collected here from patent publication US8293218B2, “Skin care compositions comprising substituted monoamines” (Conopco, Inc., priority 2010, dated 2012).

Each structure is given as a SMILES string.

This assay has as its system Melanoderm tissue equivalent model MEL-300 containing melanocytes obtained from dark skin individuals. As to the kind of experiment: Melanoderm tissue equivalent model MEL-300, total melanin content (inhibition of melanogenesis). Particulars: Melanocyte, 336 h; 10 μM in maintenance medium, 14 days, total melanin content vs DMSO vehicle control; read-out: Melanoderm (% Reduction at 10 μM). Format: cell-based. As for the experimental part:
Melanoderm tissue equivalent model MEL-300 (MatTek: Ashland, Mass.) containing melanocytes obtained from dark skin individuals were cultured as per supplier instructions. Components were added to the maintenance medium phase (no topical treatments) at a final concentration of 10 μM for 14 days at which time the experiment was terminated and the tissues assessed for melanin content. Medium and treatments were changed three times per week. DMSO was utilized as the vehicle control and all treatments were performed at least in duplicate.
For quantification of total melanin, each Melanoderm was placed into an individual Eppendorf tube (2 mL) into which 250 μL of Solvable™ tissue solubilizer (Packard Bioscience Co., Cat #6NE9100) was added. Each tube was vortexed and incubated at 60° C. for 18 hours. Each sample was then centrifuged (5-minutes at 13,000 RPMs) to remove any particulates. 100 or 200 μL of supernatant were transferred to a 96 well microtiter plate and the absorbance read at 490 nm. Total melanin content was calculated from a standard curve using synthetic melanin (Sigma Cat #M8631). Data was analyzed for significance using the t-test in Microsoft Excel to generate p-values (p-values less than 0.01 represent 99% confidence, p values of 0.05 represent 95% confidence both of which are statistically significant).
Take `COc1ccc(CNCCc2ccccc2)cc1OC` [Compound 3a, N-(3,4-dimethoxybenzyl)-2-phenylethanamine]: the inhibition at 10 µM came to 40.3%.
As to `COc1ccc(CNCCc2ccccc2)cc1` [Compound 3b, N-(4-methoxybenzyl)-2-phenylethanamine], the inhibition at 10 µM was determined as 54.4%.
Take `c1ccc(CCNCc2cccc(Oc3ccccc3)c2)cc1` [Compound 3c, N-(3-phenoxybenzyl)-2-phenylethanamine]: the inhibition at 10 µM was 68.9%.
With `COc1ccc(OC)c(CNCCc2ccccc2)c1` [Compound 3d, N-(2,5-dimethoxybenzyl)-2-phenylethanamine], the inhibition at 10 µM came to 60.3%.
In the case of `Cc1ccc(CNCCc2ccccc2)cc1C` [Compound 3e, N-(3,4-dimethylbenzyl)-2-phenylethanamine], the inhibition at 10 µM worked out at 64.5%.
As to `c1ccc(CCNCC2CCCCC2)cc1` [Compound 3f, N-(cyclohexylmethyl)-2-phenylethanamine], the inhibition at 10 µM came to 69.5%.
The same measure for `COc1cc(CNCCc2ccccc2)cc(OC)c1` [Compound 3g, N-(3,5-dimethoxybenzyl)-2-phenylethanamine]: 51.6%.
Under `COc1ccc(CCNCCc2ccccc2)cc1OC` [Compound 3h, 2-(3,4-dimethoxyphenyl)-N-phenethylethanamine] stands 53.1%.
For `COc1ccc(CN(C)CCc2ccccc2)cc1OC` [Compound 7, N-(3,4-dimethoxybenzyl)-N-methyl-2-phenylethanamine], the inhibition at 10 µM worked out at 44.4%.
As for `COc1ccc(CNCCC(C)C)cc1OC` [Compound 9, N-(3,4-dimethoxybenzyl)-3-methylbutan-1-amine], the inhibition at 10 µM turned out to be 1.9%.
